The record followed here is ChEMBL document CHEMBL4627279, “Discovery and structure-activity relationships of spiroindolines as novel inducers of oligodendrocyte progenitor cell differentiation” (Bioorg Med Chem, 2020).

Data set [1] in a line: cells. Particulars: Rattus norvegicus.
Description: Induction of rat oligodendrocyte precursor cells differentiation assessed as myelin basic protein expression by immunostaining based assay
Data set [2] is described as follows: Plasma clearance in C57BL/6 mouse at 1 mg/kg, iv administered as a single dose. The format is ADME, organism-based.
In data set [3] the target is Cytochrome P450 3A4 (Homo sapiens, UniProt P08684). Kind of data set: Inhibition of CYP3A4 in human liver microsomes. The format is ADME. In general terms: Liver microsomes are a subcellular fraction often used to study metabolism.
The target of data set [4] is Cytochrome P450 2C9 (Homo sapiens, UniProt P11712). Kind of data set: Inhibition of CYP2C9 in human liver microsomes. In kind it is ADME.
Data set [5] concerns the target CYP2D6 (Homo sapiens, UniProt P10635). As to the kind of experiment: Inhibition of CYP2D6 in human liver microsomes at 10 uM. In kind it is ADME.
The nature of data set [6]: Volume of distribution in C57BL/6 mouse at 1 mg/kg, iv administered as a single dose. The format is ADME, organism-based. Particulars: in vivo.
A short description of data set [7]: AUClast in C57BL/6 mouse at 10 mg/kg, po administered as a single dose. The format is ADME, organism-based. More on the design: dose 10 mg/kg, route oral, time 0 - last. Particulars: in vivo.
Data set [8] in a line: Cmax in C57BL/6 mouse at 10 mg/kg, po administered as a single dose. In kind it is ADME, organism-based. Also noted: dose 10 mg/kg, route oral. The note with it: in vivo.
The nature of data set [9]: Elimination half life in C57BL/6 mouse at 10 mg/kg, po administered as a single dose. In kind it is ADME, organism-based. Particulars: in vivo, read-out: beta t1/2 (converted).
Data set [10] can be described thus: Oral bioavailability in C57BL/6 mouse at 10 mg/kg administered as a single dose. In kind it is ADME, organism-based. The note with it: in vivo.
The nature of data set [11]: Brain to plasma permeability coefficient, Kp of the compound in C57BL/6 mouse after 0.5 hrs. The format is ADME.
The nature of data set [12]: Brain to plasma permeability coefficient, Kp of the compound in C57BL/6 mouse after 4 hrs. In kind it is ADME.
The test system of data set [13] is Mus musculus. As to the kind of experiment: Immunosuppressive activity in MOG (35 to 55 residues)/pertussis toxin-induced experimental autoimmune encephalomyelitis C57BL/6 mouse model assessed as reduction in development of clinical symptoms at 50 mg/kg, po administered once a day starting from day 3 post immunization upto 17 days. The format is functional, organism-based.

Data set [14] in a line: cells. Particulars: Rattus norvegicus. The source holds these as a separate data set.
Description: Induction of rat oligodendrocyte precursor cells differentiation assessed as myelin basic protein expression by immunostaining based assay relative to control
Data set [15] in a line: physchem. The note with it: buffer, pH 7.4.
Description: Lipophilicity, log D of the compound at pH 7.4
The nature of data set [16]: in vitro. The note with it: human.
Description: Metabolic stability in human assessed as parent compound remaining after 30 mins
Data set [17] in a line: in vitro. The note with it: mouse.
Description: Metabolic stability in mouse assessed as parent compound remaining after 30 mins
Data set [18] deals with hERG (KCNH2) (Homo sapiens, UniProt Q12809). As to the kind of experiment: in vitro.
Description: Inhibition of human ERG at 10 uM

SMILES strings stand for the structures. Active and inactive are the calls of the source. The rule behind the calls is not given here. A value given as a limit tells only on which side of the number the result lay.

A word on the EC50: it is the concentration that produces a half-maximal response. What is called clearance is a measure of how efficiently the substance is removed, as volume per time. As a reminder, the IC50 is the concentration that inhibits the measured activity by half. What is called inhibition is the relative decrease from the control value, in per cent. A lower inhibition goes with a weak effect. The Vd is the apparent volume that relates the amount in the body to the concentration in plasma or blood. The low end stands for little distribution into tissue, the high end for wide distribution into tissue. As a reminder, the AUC(0-t) is the area under the concentration-time curve up to a stated or last time point. A low value points to less exposure. As usually defined, the Cmax is the maximum level reached in the sampled fluid or tissue. As usually defined, the Kp is tissue or fluid exposure divided by exposure in the circulation. The term Emax denotes the greatest response seen or fitted, relative to the assay's reference. As usually defined, the logD is the decadic logarithm of the distribution of all forms, ionised or not, between an organic phase and buffer at a given pH. Lower therefore signals a more hydrophilic compound. Usually share remaining stands for what is left of the initial amount, in per cent. Read a low share remaining as more turnover.

Chain of Cytochrome P450 3A4 (P08684 whole entry): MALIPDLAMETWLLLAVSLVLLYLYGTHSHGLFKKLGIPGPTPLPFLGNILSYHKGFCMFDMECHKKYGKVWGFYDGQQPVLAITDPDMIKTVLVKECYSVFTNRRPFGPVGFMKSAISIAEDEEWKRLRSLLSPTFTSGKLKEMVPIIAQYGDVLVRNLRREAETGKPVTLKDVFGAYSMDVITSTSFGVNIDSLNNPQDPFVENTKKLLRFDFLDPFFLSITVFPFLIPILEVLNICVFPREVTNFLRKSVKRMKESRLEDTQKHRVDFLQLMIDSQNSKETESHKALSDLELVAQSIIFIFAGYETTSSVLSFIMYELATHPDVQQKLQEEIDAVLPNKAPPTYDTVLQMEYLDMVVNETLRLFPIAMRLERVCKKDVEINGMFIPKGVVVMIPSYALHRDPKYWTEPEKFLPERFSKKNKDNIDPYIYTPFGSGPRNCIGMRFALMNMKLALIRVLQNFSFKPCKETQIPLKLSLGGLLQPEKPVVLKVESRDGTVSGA
Chain of hERG (KCNH2) (Q12809 whole entry): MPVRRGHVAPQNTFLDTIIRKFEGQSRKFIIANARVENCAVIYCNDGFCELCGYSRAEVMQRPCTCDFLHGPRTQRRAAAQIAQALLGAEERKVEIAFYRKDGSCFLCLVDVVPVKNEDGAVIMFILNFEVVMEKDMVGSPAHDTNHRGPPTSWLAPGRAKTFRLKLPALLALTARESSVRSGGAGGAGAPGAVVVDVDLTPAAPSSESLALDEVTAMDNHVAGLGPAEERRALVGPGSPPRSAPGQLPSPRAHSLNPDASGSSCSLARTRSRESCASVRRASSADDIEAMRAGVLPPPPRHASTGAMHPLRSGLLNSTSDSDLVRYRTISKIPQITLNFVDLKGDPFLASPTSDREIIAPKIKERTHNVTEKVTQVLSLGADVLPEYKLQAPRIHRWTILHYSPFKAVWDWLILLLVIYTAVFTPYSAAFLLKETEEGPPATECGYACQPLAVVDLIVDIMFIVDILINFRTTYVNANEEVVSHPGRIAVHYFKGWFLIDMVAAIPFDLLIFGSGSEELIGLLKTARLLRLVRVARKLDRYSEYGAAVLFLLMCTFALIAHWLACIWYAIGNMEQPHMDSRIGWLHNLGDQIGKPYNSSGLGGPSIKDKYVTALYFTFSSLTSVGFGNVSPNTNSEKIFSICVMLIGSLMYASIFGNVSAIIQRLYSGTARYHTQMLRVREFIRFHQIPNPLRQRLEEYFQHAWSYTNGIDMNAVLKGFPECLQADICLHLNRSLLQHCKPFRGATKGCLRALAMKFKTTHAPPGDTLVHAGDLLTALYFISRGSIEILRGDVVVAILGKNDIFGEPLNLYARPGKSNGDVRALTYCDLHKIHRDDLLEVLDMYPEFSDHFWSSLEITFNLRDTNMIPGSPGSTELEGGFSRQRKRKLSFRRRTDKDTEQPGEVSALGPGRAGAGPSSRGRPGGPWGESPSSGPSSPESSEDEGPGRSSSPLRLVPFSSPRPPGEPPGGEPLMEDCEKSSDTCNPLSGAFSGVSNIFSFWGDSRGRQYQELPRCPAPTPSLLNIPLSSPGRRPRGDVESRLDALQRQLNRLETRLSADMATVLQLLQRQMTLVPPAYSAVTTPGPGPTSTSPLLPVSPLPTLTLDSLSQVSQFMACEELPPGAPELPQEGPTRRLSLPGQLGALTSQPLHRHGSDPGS
Chain of Cytochrome P450 2C9 (P11712 whole entry): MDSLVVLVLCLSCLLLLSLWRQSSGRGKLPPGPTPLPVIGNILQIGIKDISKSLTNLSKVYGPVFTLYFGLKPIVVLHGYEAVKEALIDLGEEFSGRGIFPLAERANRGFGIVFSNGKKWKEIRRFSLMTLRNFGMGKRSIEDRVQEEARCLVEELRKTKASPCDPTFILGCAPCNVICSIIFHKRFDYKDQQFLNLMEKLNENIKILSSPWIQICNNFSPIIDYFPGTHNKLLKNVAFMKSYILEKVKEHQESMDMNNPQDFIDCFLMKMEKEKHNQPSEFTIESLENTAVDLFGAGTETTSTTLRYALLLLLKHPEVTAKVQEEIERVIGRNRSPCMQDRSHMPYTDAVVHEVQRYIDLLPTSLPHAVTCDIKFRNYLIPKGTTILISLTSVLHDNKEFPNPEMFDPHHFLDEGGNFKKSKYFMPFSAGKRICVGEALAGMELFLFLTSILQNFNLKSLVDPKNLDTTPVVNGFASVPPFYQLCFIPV
Chain of CYP2D6 (P10635 whole entry): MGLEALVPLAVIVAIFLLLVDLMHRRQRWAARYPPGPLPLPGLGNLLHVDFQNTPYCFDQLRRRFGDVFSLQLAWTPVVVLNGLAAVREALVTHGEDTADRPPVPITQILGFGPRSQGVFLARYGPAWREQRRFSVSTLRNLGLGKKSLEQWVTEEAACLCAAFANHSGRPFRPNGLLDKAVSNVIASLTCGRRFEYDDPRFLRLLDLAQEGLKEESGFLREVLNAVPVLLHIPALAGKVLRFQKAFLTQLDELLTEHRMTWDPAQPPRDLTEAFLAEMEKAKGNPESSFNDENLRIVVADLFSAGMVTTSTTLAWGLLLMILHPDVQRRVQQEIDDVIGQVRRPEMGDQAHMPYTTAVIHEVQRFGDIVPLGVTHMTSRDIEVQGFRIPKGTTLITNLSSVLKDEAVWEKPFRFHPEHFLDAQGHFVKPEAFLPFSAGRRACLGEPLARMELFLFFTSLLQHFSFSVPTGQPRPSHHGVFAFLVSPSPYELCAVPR

Regarding `O=C1c2cc(C(F)(F)F)ccc2OC12CCN(CC1CCOCC1)CC2`, the EC50 in data set [1] came out at 480 nM.
Take `CC(C)c1ccc2c(c1)C(=O)C1(CCN(CC3CCC3)CC1)N2`: the 50% effective concentration (EC50) in data set [1] amounted to 16 nM.
In data set [2], `O=C1c2cc(C(F)(F)F)ccc2NC12CCN(CC1CCOCC1)CC2` returned a clearance of 79.2 mL/min/kg. The IC50 in data set [3] and in data set [4] was more than 18000 nM throughout. For the same molecule, the figures for the inhibition at 10 µM in [5] and in [18] were 70% and 94%, respectively. Moreover, the Vd in data set [6] amounted to 31.5 L/kg. This molecule came in with an area under the curve AUC(0-t) in data set [7] of 1780 ng·h/mL. The molecule further showed a Cmax in data set [8] of 308 ng/mL. For the same molecule, the half-life in data set [9] is 6.4 h. For the same molecule, the bioavailability in [10] is 116%. Also, in data set [11], the Kp at 0.5 h came to 25.5. This molecule gave a Kp at 4 h in data set [12] of 50.9. Besides, the outcome in data set [13] was Active. Also, the EC50 in [1] is 3.2 nM. The same molecule gave an Emax in data set [14] of 240%. This molecule also yielded a logD in [15] of 2.8. The amount remaining at 0.5 h was found to be 35% in [16] and 68% in [17].
On to `CC(C)c1ccc2c(c1)C(=O)C1(CCN(CC3CCOCC3)CC1)N2`, for which, in [1], the EC50 came to 4.6 nM.
Still for that read-out and setting: in the case of `O=C1c2cc(O)ccc2NC12CCN(CC1CCOCC1)CC2` it was more than 10000 nM.
The molecule `OC1c2cc(C(F)(F)F)ccc2NC12CCN(CC1CCOCC1)CC2` (stereo unspecified) returned an EC50 in [1] of 520 nM.
With `FC(F)(F)c1ccc2c(c1)CC1(CCN(CC3CCOCC3)CC1)N2`, a half-maximal response in [1] (EC50) required 240 nM.
For `CN1c2ccc(C(F)(F)F)cc2CC12CCN(CC1CCOCC1)CC2`, in [1], a half-maximal effect (EC50) was put at 7100 nM.
Same read-out and setting: in the case of `CC(C)CN1CCC2(CC1)Nc1ccc(C(C)C)cc1C2=O` it was 330 nM; in that of `CC(C)c1ccc2c(c1)C(=O)C1(CCN(CCc3ccccc3)CC1)N2`, 540 nM; in that of `CC(C)c1ccc2c(c1)C(=O)C1(CCN(C(=O)C3CC3)CC1)N2`, more than 10000 nM.
On the same count and under the same terms, in the case of `CCCN1CCC2(CC1)Nc1ccc(C(C)C)cc1C2=O` it was 550 nM; in that of `COc1ccc2c(c1)C(=O)C1(CCN(CC3CCOCC3)CC1)N2`, 970 nM; in that of `CC(C)c1ccc2c(c1)C(=O)C1(CCN(CC3CCCCC3)CC1)N2`, 37 nM.
`CC(C)Oc1ccc2c(c1)C(=O)C1(CCN(CC3CCOCC3)CC1)N2`: the EC50 in [1] came out at 59 nM.
Molecule `O=C1c2cc(C(F)(F)F)ccc2CC12CCN(CC1CCOCC1)CC2` showed an EC50 in data set [1] of 110 nM.
On the same count and under the same terms, in the case of `O=C1c2ccccc2NC12CCN(CC1CCOCC1)CC2` it was 550 nM.
In the case of `O=C1c2cc(Cl)ccc2NC12CCN(CC1CCOCC1)CC2`, the EC50 in [1] stood at 320 nM.
Regarding `COC1c2cc(C(F)(F)F)ccc2NC12CCN(CC1CCOCC1)CC2` (stereo unspecified), the EC50 in data set [1] came out at 5.7 nM.
Molecule `CC(C)c1ccc2c(c1)C(=O)C1(CCN(S(=O)(=O)C3CC3)CC1)N2` had an EC50 in [1] of more than 10000 nM.
On the same count and under the same terms, in the case of `CN1c2ccc(C(F)(F)F)cc2C(=O)C12CCN(CC1CCOCC1)CC2` it was 9.3 nM; in that of `CC(C)c1ccc2c(c1)C(=O)C1(CCN(Cc3ccccc3)CC1)N2`, 330 nM; in that of `CC(C)c1ccc2c(c1)C(=O)C1(CCN(CC3CCCC3)CC1)N2`, 25 nM.
Take `CC(C)(C)c1ccc2c(c1)C(=O)C1(CCN(CC3CCOCC3)CC1)N2`: a half-maximal response in data set [1] (EC50) required 9.9 nM.
